Assays:
[1] = system: rat kidneys; test: Rodent model of warm ischemia/reperfusion (I/R); type: in vivo; settings: rat kidneys following warm I/R; MitoQ 48 hr oral; 100 μM
Excerpt: Rodent models of warm ischemia/reperfusion (I/R) (FIGS. 6-7) and cold renal preservation, as well as renal cell models of cold storage (FIG. 3-5) were used to evaluate the effectiveness of MitoQ in preventing renal damage during ischemia. […] In addition, Mito Q blunted mitochondrial superoxide production (Mitosox Red staining) and respiratory complex dysfunction following cold preservation (FIGS. 4-5).

[2] = patients with chronic hepatitis C virus infection, phase II clinical trials; cited from earlier work
[3] = system: rat kidneys; test: MitoSOX Red mitochondrial superoxide generation, cold storage ex vivo model
Description: All animals were treated according to the National Institutes of Health Guide for the Care and Use of Laboratory Animals and the University of Arkansas for Medical Sciences Institutional Animal Care and Use Committee guidelines. Male Fischer 344 inbred rats (Charles Rivers Laboratories, Inc., Wilmington, Mass.) weighing between 250 and 300 g were anesthetized with ethrane, followed by shaving and prepping with betadine. […] Bulldog clamps were placed on the aorta and vena cava (proximal and distal to the renal vessels) to prevent blood flow to the kidneys. A 22-gauge surgical needle was used to puncture the rat's aorta to flush the renal grafts with saline (10 ml per kidney) using a small catheter. Once the kidneys started to turn light brown (perfusion), another vent was formed in the vena cava to allow blood flow from the kidneys. Once both kidneys were completely flushed, the right kidney was recovered and served as a control (group 1), and the left kidney was exposed to CS alone for 4 h at 4° C. (group 2). In additional experiments, kidneys were flushed with saline through the aorta using a small catheter followed by flushing the right kidney with saline containing MitoQ (100 μM) and the left kidney with saline containing DecylTPP (100 μM) (10 ml per kidney). Tissues were recovered and stored in CS+MitoQ (100 μM; right kidney) or CS+DecylTPP (100 μM; left kidney) for 4 h at 4° C. (groups 3 and 4, respectively). […]
(§1) MitoSOX Red (Invitrogen) was used to measure mitochondrial superoxide generation during CS. […] Fluorescence was visualized using an Eclipse E800 microscope (Nikon, Melville, N.Y.) with a rhodamine filter using a water immersion objective (60×). Fluorescent images of NRK cells were captured with equal exposure times and quantified by averaging the mean intensity fluorescence of five random cells in three different fields using Nikon N is Elements software. In separate experiments, cells were grown on coverslips, preloaded with MitoSOX Red before treatment (groups 1-4), and evaluated for mitochondrial superoxide generation using a Hitachi F-2500 spectrofluorometer (Hitachi, Tokyo, Japan) equipped with a coverslip holder using two different excitation wavelengths: 396 and 510 nm with the emission measured at 580 nm as previously described. In addition, rat kidneys were monitored for mitochondrial superoxide generation by flushing kidneys with saline through the aorta using a small catheter as described under Cold Storage Ex Vivo Model, followed by saline containing MitoSOX Red (5 μM; 10 ml/kidney) before treatment (groups 1-4). Paraffin sections were analyzed using the rhodamine filter on the Nikon Eclipse 800 microscope (20×).

[4] = system: rat kidneys; test: TUNEL staining of renal cell death during CS; settings: 4 h CS, 100 μM
Description: All animals were treated according to the National Institutes of Health Guide for the Care and Use of Laboratory Animals and the University of Arkansas for Medical Sciences Institutional Animal Care and Use Committee guidelines. Male Fischer 344 inbred rats (Charles Rivers Laboratories, Inc., Wilmington, Mass.) weighing between 250 and 300 g were anesthetized with ethrane, followed by shaving and prepping with betadine. […] Bulldog clamps were placed on the aorta and vena cava (proximal and distal to the renal vessels) to prevent blood flow to the kidneys. A 22-gauge surgical needle was used to puncture the rat's aorta to flush the renal grafts with saline (10 ml per kidney) using a small catheter. Once the kidneys started to turn light brown (perfusion), another vent was formed in the vena cava to allow blood flow from the kidneys. […]
Cell cytotoxicity was determined using the LDH-Cytotoxicity Assay Kit II (Biovision Research Products, Mountain View, Calif.) according to the manufacturer's instructions. Absorbance was measured at 450 nm using a SpectraMax 190 microplate reader and SpectraMax software (Molecular Devices, Sunnyvale, Calif.). Renal cell death was determined using TUNEL staining. […] The amount of cell death was calculated by averaging the number of cells positive for TUNEL (brown staining) in 10 different fields (cortex and medulla) (20×). […]

[5] = system: NRK cells; test: Available nitric-oxide levels, CS NRK cell model; type: cell-based, rat; settings: 4-h CS (data not shown)
Excerpt: Nitric oxide is a free radical that is well known to interact with superoxide to form peroxynitrite. It is generated by nitric-oxide synthase (NOS) and is an important signaling molecule in many physiological processes. Few reports have evaluated the effect of cold ischemia alone on NOS protein levels or activity.

[6] = system: porcine renal mitochondrial respiratory complex I; test: Mitochondrial respiratory complex activity, porcine ex vivo renal model
Description: (§2) FIG. 15 depicts graphs showing activities or (A) porcine renal mitochondrial respiratory complex I, (B) activities or porcine renal mitochondrial respiratory complex II/III, and (C) activities or porcine renal mitochondrial respiratory complex IV, after MitoQ treatment. MitoQ ([…]) protected porcine complex II/III following 24 hr cold preservation. Values are expressed as mean SEM (n=4).
(§3) Mitochondrial respiratory complex activity was also evaluated in the porcine ex vivo renal model at 24-h and 48-h CS. […] Protection of Complex II/III by MitoQ (100 μM) was significant following 24-h cold preservation.

[7] = system: porcine renal mitochondrial respiratory complex IV; test: as above
Description: as §2, §3

[8] = system: NRK cells; test: MitoSOX Red mitochondrial superoxide generation, cold storage in vitro model; type: cell-based, rat; settings: 4 h CS at 4° C. in UW, 1 μM
Description: Normal rat kidney proximal tubular cells (NRK-52E; American Type Culture Collection, Manassas, Va.) were maintained in six-well 100 or 150-mm, or 150-mm plates in a humidified incubator gassed with 5% CO2 and 95% air at 37° C. in DMEM (Invitrogen, Carlsbad, Calif.) containing 5% fetal calf serum (FCS). Cells were grown to 60% confluence and divided into four treatment groups: 1) untreated (Untx), 2) CS, 3) CS+MitoQ, and 4) CS+DecylTPP. Untreated cells remained at 37° C. in DMEM containing 5% FCS (group 1). […]
as §1, with “In addition, rat kidneys were monitored for mitochondrial superoxide generation by flushing kidneys with saline through the aorta using a small catheter as described under Cold Storage Ex Vivo Model, followed by saline containing MitoSOX Red (5 μM; 10 ml/kidney) before treatment (groups 1-4). Paraffin sections were analyzed using the rhodamine filter on the Nikon Eclipse 800 microscope (20×).” left out

COC1=C(OC)C(=O)C(CCCCCCCCCC[P+](c2ccccc2)(c2ccccc2)c2ccccc2)=C(C)C1=O [MitoQ, mitoquinone]
MnSOD activity [1]: improved
liver damage [2]: reduce liver damage
mitochondrial superoxide production (Mitosox Red staining) ([3]; following cold preservation (Example 1)): blunted
mitochondrial superoxide generation (MitoSOX Red) ([3]; rat kidneys, 4 h CS at 4° C., 100 μM): markedly decreased
MitoSox Red staining (superoxide) ([3]; rat kidneys, cold storage 4 hr UW, 4° C., UW+MitoQ (100 µM), n=3): decreases
decrease of cell death (TUNEL) compared with CS kidneys [4]: ~2 fold
available nitric-oxide levels [5]: no effect
protection of Complex I activity, 24-h versus 48-h CS [6]: at 24-h better than at 48-h
protection of Complex IV activity, 24-h versus 48-h CS [7]: at 24-h better than at 48-h
CS-induced mitochondrial superoxide generation (MitoSOX Red) [8]: significant protection
